Test results taken from patent US9399646B2 (Genentech, Inc., priority 2010, dated 2016).

Tests used:
MCF-7 cells = assay: Breast cancer cell viability assay (CellTiter-Glo, 5 days); assay type: cell-based; conditions: 5 days' compound exposure; for IC50: Homo sapiens, MCF7, 120 h
Procedure, shortened: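 MCF-7 cells, 320 per well in RPMI with 10% FBS and 20 mM HEPES, adhered overnight, then exposed 5 days to an eleven-point semilog dilution (final 0.3-0.000003 μM). CellTiter-Glo luminescence read; % viability = (sample − cell-free background)/(untreated − background) × 100.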

ER-α in MCF-7 cells = target: T1, ER-α in MCF-7 cells (Homo sapiens, UniProt P03372); assay: Breast cancer cell ER-α in cell western assay (SP1); assay type: cell-based; design: endogenous in cells; host or cells: MCF-7; conditions: 4 or 24 hr post compound addition; for Emax: MCF7, SP1 antibody, read-out: ER-α In Cell Western Assay (SP1) Max Response; for DC50: SP1 antibody, read-out: ER-α In Cell Western Assay (SP1) IC50
T1 sequence (P03372 1-595): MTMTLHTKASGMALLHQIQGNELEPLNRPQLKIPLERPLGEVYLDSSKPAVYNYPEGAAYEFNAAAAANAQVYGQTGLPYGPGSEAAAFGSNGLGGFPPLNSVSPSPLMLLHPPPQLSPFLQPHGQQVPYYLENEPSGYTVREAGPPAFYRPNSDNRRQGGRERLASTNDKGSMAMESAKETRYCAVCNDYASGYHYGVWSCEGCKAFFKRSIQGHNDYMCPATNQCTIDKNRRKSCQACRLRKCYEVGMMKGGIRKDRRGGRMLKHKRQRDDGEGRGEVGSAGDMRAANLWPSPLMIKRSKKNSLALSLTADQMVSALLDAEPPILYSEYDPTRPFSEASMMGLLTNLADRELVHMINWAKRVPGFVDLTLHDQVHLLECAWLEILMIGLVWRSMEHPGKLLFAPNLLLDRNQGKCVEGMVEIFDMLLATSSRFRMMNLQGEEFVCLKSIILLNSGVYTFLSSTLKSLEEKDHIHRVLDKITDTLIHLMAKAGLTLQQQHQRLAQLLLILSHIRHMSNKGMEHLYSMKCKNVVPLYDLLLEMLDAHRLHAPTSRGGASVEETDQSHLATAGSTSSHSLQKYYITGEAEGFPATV
Procedure, shortened: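 Read-out is infrared in-cell western: SP1-detected ER intensity at 800 nm divided by DRAQ5 DNA intensity at 700 nm, relative to untreated wells ×100.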

Row | SMILES | MCF7 Viability Assay Max Response (MCF-7 cells) | IC50 (MCF-7 cells) | Emax (ER-α in MCF-7 cells) | DC50 (ER-α in MCF-7 cells)
1 | CC/C(=C(/c1ccc(/C=C/C(=O)O)cc1)c1ccc2[nH]ncc2c1)c1ccc(-c2cncnc2)cc1 [Compound 383, (E)-3-(4-((E)-1-(1H-Indazol-5-yl)-2-(4-(pyrimidin-5-yl)phenyl)but-1-en-1-yl)phenyl)acrylic acid] | ++ (++ = a single % value ≧ 40%) | > 100 nM | ≥ 40% | > 100 nM
2 | CC/C(=C(/c1ccc(/C=C/C(=O)O)cc1)c1ccc2[nH]ncc2c1)c1ccc(-c2cnn(C)c2)cc1 [Compound 384, (E)-3-(4-((E)-1-(1H-Indazol-5-yl)-2-(4-(1-methyl-1H-pyrazol-4-yl)phenyl)but-1-en-1-yl)phenyl)acrylic acid] | ++ (++ = a single % value ≧ 40%) | > 100 nM | ≥ 40% | > 100 nM
3 | CC/C(=C(/c1ccc(/C=C/C(=O)O)cc1)c1ccc2[nH]ncc2c1)c1ccc(-c2ccccn2)cc1 [Compound 385, (E)-3-(4-((E)-1-(1H-Indazol-5-yl)-2-(4-(pyridin-2-yl)phenyl)but-1-en-1-yl)phenyl)acrylic acid] | ++ (++ = a single % value ≧ 40%) | > 100 nM | ≥ 40% | ≤ 100 nM
4 | CC/C(=C(/c1ccc(/C=C/C(=O)O)cc1)c1ccc2[nH]ncc2c1)c1ccc(-c2ccsc2)cc1 [Compound 386, (E)-3-(4-((E)-1-(1H-Indazol-5-yl)-2-(4-(thiophen-3-yl)phenyl)but-1-en-1-yl)phenyl)acrylic acid] | ++ (++ = a single % value ≧ 40%) | > 100 nM | ≥ 40% | ≤ 100 nM
5 | CC/C(=C(/c1ccc(/C=C/C(=O)O)cc1)c1ccc2[nH]ncc2c1)c1ccc(-c2nccs2)cc1 [Compound 387, (E)-3-(4-((E)-1-(1H-Indazol-5-yl)-2-(4-(thiazol-2-yl)phenyl)but-1-en-1-yl)phenyl)acrylic acid] | ++ (++ = a single % value ≧ 40%) | > 100 nM | ≥ 40% | ≤ 100 nM
6 | CC/C(=C(/c1ccc(/C=C/C(=O)O)cc1)c1ccc2[nH]ncc2c1)c1ccc(-c2cscn2)cc1 [Compound 388, (E)-3-(4-((E)-1-(1H-Indazol-5-yl)-2-(4-(thiazol-4-yl)phenyl)but-1-en-1-yl)phenyl)acrylic acid] | ++ (++ = a single % value ≧ 40%) | > 100 nM | ≥ 40% | ≤ 100 nM
7 | CC/C(=C(/c1ccc(/C=C/C(=O)O)cc1)c1ccc2[nH]ncc2c1)c1ccc(-c2cnccn2)cc1 [Compound 389, (E)-3-(4-((E)-1-(1H-Indazol-5-yl)-2-(4-(pyrazin-2-yl)phenyl)but-1-en-1-yl)phenyl)acrylic acid] | ++ (++ = a single % value ≧ 40%) | > 100 nM | ≥ 40% | ≤ 100 nM
8 | CC/C(=C(/c1ccc(/C=C/C(=O)O)cc1)c1ccc2[nH]ncc2c1)c1cccc(-c2ccccn2)c1 [Compound 390, (E)-3-(4-((E)-1-(1H-Indazol-5-yl)-2-(3-(pyridin-2-yl)phenyl)but-1-en-1-yl)phenyl)acrylic acid] | ++ (++ = a single % value ≧ 40%) | ≤ 100 nM | ≥ 40% | ≤ 100 nM
9 | CC/C(=C(/c1ccc(/C=C/C(=O)O)cc1)c1ccc2[nH]ncc2c1)c1cccc(-c2nccs2)c1 [Compound 391, (E)-3-(4-((E)-1-(1H-Indazol-5-yl)-2-(3-(thiazol-2-yl)phenyl)but-1-en-1-yl)phenyl)acrylic acid] | ++ (++ = a single % value ≧ 40%) | ≤ 100 nM | ≥ 40% | ≤ 100 nM
10 | CC/C(=C(/c1ccc(/C=C/C(=O)O)cc1)c1ccc2[nH]ncc2c1)c1cccc(-c2cscn2)c1 [Compound 392, (E)-3-(4-((E)-1-(1H-Indazol-5-yl)-2-(3-(thiazol-4-yl)phenyl)but-1-en-1-yl)phenyl)acrylic acid] | ++ (++ = a single % value ≧ 40%) | ≤ 100 nM | ≥ 40% | ≤ 100 nM
11 | CC/C(=C(/c1ccc(/C=C/C(=O)O)cc1)c1ccc2[nH]ncc2c1)c1cccc(-c2cccnc2)c1 [Compound 393, (E)-3-(4-((E)-1-(1H-Indazol-5-yl)-2-(3-(pyridin-3-yl)phenyl)but-1-en-1-yl)phenyl)acrylic acid] | ++ (++ = a single % value ≧ 40%) | ≤ 100 nM | ≥ 40% | ≤ 100 nM
12 | CC/C(=C(/c1ccc(/C=C/C(=O)O)cc1)c1ccc2[nH]ncc2c1)c1cccc(-c2ccncc2)c1 [Compound 394, (E)-3-(4-((E)-1-(1H-Indazol-5-yl)-2-(3-(pyridin-4-yl)phenyl)but-1-en-1-yl)phenyl)acrylic acid] | ++ (++ = a single % value ≧ 40%) | > 100 nM | ≥ 40% | ≤ 100 nM
13 | CC/C(=C(/c1ccc(/C=C/C(=O)O)cc1)c1ccc2[nH]ncc2c1)c1ccc(-c2cnsc2)cc1 [Compound 395, (E)-3-(4-((E)-1-(1H-Indazol-5-yl)-2-(4-(isothiazol-4-yl)phenyl)but-1-en-1-yl)phenyl)acrylic acid] | ++ (++ = a single % value ≧ 40%) | > 100 nM | ≥ 40% | ≤ 100 nM
14 | CC/C(=C(/c1ccc(/C=C/C(=O)O)cc1)c1ccc2[nH]ncc2c1)c1ccc(N(C)c2ccccc2)cc1 [Compound 396, (E)-3-(4-((E)-1-(1H-Indazol-5-yl)-2-(4-(methyl(phenyl)amino)phenyl)but-1-en-1-yl)phenyl)acrylic acid & (E)-3-(4-((Z)-1-(1H-indazol-5-yl)-2-(4-(methyl(phenyl)amino)phenyl)but-1-en-1-yl)phenyl)acrylic acid (1:1 Mixture)] | ++ (++ = a single % value ≧ 40%) | > 100 nM | ≥ 40% | > 100 nM
15 | CC/C(=C(/c1ccc(/C=C/C(=O)O)cc1)c1ccc2[nH]ncc2c1)c1ccc(Nc2ccccc2)cc1 [Compound 397, (E)-3-(4-((E)-1-(1H-Indazol-5-yl)-2-(4-(phenylamino)phenyl)but-1-en-1-yl)phenyl)acrylic acid] | ++ (++ = a single % value ≧ 40%) | ≤ 100 nM | ≥ 40% | ≤ 100 nM
16 | CC/C(=C(/c1ccc(/C=C/C(=O)O)cc1)c1ccc2nn(C(F)F)cc2c1)c1ccc(F)cc1Cl [Compound 402, (E)-3-(4-((E)-2-(2-Chloro-4-fluorophenyl)-1-(2-(difluoromethyl)-2H-indazol-5-yl)but-1-en-1-yl)phenyl)acrylic acid] | ++ (++ = a single % value ≧ 40%) | ≤ 100 nM | ≥ 40% | ≤ 100 nM
17 | CC/C(=C(/c1ccc(/C=C/C(=O)O)cc1)c1ccc2c(cnn2C(C)=O)c1)c1ccc(F)cc1Cl [Compound 403, (E)-3-(4-((E)-1-(1-Acetyl-1H-indazol-5-yl)-2-(2-chloro-4-fluorophenyl)but-1-en-1-yl)phenyl)acrylic acid] | ++ (++ = a single % value ≧ 40%) | ≤ 100 nM | ≥ 40% | ≤ 100 nM
18 | CC/C(=C(/c1ccc(/C=C/C(=O)O)cc1)c1ccc2c(cnn2C(=O)C(C)C)c1)c1ccc(F)cc1Cl [Compound 404, (E)-3-(4-((E)-2-(2-Chloro-4-fluorophenyl)-1-(1-isobutyryl-1H-indazol-5-yl)but-1-en-1-yl)phenyl)acrylic acid] | ++ (++ = a single % value ≧ 40%) | ≤ 100 nM | ≥ 40% | ≤ 100 nM
19 | CC/C(=C(/c1ccc(/C=C/C(=O)O)cc1)c1ccc2c(cnn2C(=O)C(C)(C)C)c1)c1ccc(F)cc1Cl [Compound 405, (E)-3-(4-((E)-2-(2-Chloro-4-fluorophenyl)-1-(1-pivaloyl-1H-indazol-5-yl)but-1-en-1-yl)phenyl)acrylic acid] | ++ (++ = a single % value ≧ 40%) | ≤ 100 nM | ≥ 40% | ≤ 100 nM
20 | CCOC(=O)n1ncc2cc(/C(=C(\CC)c3ccc(F)cc3Cl)c3ccc(/C=C/C(=O)O)cc3)ccc21 [Compound 406, (E)-3-(4-((E)-2-(2-Chloro-4-fluorophenyl)-1-(1-(ethoxycarbonyl)-1H-indazol-5-yl)but-1-en-1-yl)phenyl)acrylic acid] | ++ (++ = a single % value ≧ 40%) | ≤ 100 nM | ≥ 40% | ≤ 100 nM
